According to patent EP0614464B1, “PEPTIDES AND ANTIBODIES FOR TREATMENT OF RHEUMATOID ARTHRITIS” (PEPTIDE THERAPEUTICS LIMITED, priority 1991, dated 1993):

How the values were obtained:
IgA-α1AT complex = assay: HPLC analysis of in vitro dissociation of purified IgA-α1AT complex; type: biochemical, human; settings: Table 5; minimum concentration giving complex : free IgA ratio at 20% (base-line 14%); 90 minutes at 37°C; >500µM = no complex dissociation at highest concentration tested
Procedure: The ability of the peptides of the invention to dissociate purified IgA-α1AT complex in vitro was tested as described below. The anti-rheumatic drug D-penicillamine and other synthetic peptides were used as controls. […] The sample was monitored at wavelength 206nm at a flow rate of 1ml/minute with phosphate buffer (0.1M) pH 7.1. […] They represent the ability of the peptides to dissociate the IgA-α1AT complex in vitro. In these experiments, the base-lines level comprises a complex : free IgA ratio of 14% . The minimum concentration of peptide taken to produce a positive dissociation effect is that which results in a complex: free IgA ratio at 20%. In the results tables, all the peptide values are expressed in µMoles.

[1] = test system: alternative complement (C3) pathway; assay: Inhibition of C3-activation: preventing IgA-α1AT complex from activating the alternative complement pathway, rabbit erythrocyte haemolysis read-out; type: biochemical, human; settings: Table 5; minimum concentration needed to prevent C3 activation
[2] = test system: mouse macrophage cell line (PU 518); assay: Macrophage inhibition assay: IgA-α1AT complex-stimulated release of lysosomal enzymes; type: cell-based; settings: Table 5, head prints no unit, b70 says all values of the results tables are in µMoles, concentration needed to prevent 50% release of β-glucoromidase
Procedure: A mouse macrophage cell line (PU 518) was stimulated to release lysosomal enzymes by the addition of purified human IgA-α1AT complex. The degree to which this release was then inhibited by the peptides or other drugs was investigated, with the degree of inhibition being indicative of activity; the concentration of peptide or other test drugs giving 50% inhibition being recorded. Briefly the method was as follows:
25µl of peptide or drug was double diluted in […] + 10% foetal calf serum (FCS) in a sterile tissue culture 96 well plate. 25µl of IgA-α1AT complex in RPMI 1640 +10% FCS at about 0.2mg/ml was then added to all wells. 50µl of cells at a concentration of 2 x 10^6 cells/ml in RPMI 1640 + 10% FCS was then added to each well.
Control wells of cells alone and cells + IgA-α1AT complex were also prepared. The plate was then gently mixed and incubated overnight (16hr) at 37°C in a 4% CO2 atmosphere. Plates were then centrifuged at 1200 rpm for 10 minutes in a bench top centrifuge.
40µl of supernatant was then taken from each well and added to a 96 well polystyrene assay plate, to which was added 40µl of 160mM acetate buffer (pH 4.3) containing 2mM phenolphthalein-β-D-glucuronic acid. To obtain a standard curve, dilutions of phenolphthalein in acetate buffer from 100-5µg/ml were also added to separate wells in the assay plate.
The plates were then incubated at 37°C for 4 hours before 150µl of 0.2M glycine/NaOH buffer (pH 10.6) containing 0.2M NaCl was added to stop the reaction.
Plates were then shaken for 3 minutes before the optical density at 570nm was read on a plate reader, and the amount of β-D-glucuronic acid released from the cells calculated. The concentration of peptide or drug giving 50% inhibition of release was then noted.
The results for the macrophage inhibition assays are expressed as the concentration needed to prevent 50% release of β-glucoromidase.

CC(C)(S)[C@@H](N)C(=O)O [D-Penicillamine]
HPLC minimum (IgA-α1AT complex): 250 µM | C' minimum [1]: 31 µM | IC50 [2]: 500 µM
